From PMC8373237 (Antimicrobial Agents and Chemotherapy, 2021)
In brackets after ≈: the same amount, converted by molar mass. Several values for one entry are separate records, joined by “and”; a condition that tells them apart may be missing. Identical values can stand only once. Like-named read-outs stand apart in the source and are kept apart here. Marks after values point to notes of the source that are not given here. Square brackets hold non-standard residues; d marks the D form. Peptide text beside a SMILES is read from it. Nphe = O=C(O)CNCc1ccccc1; NPrGly = CCCNCC(=O)O

How the values were obtained:
[1] = tested on: P. aeruginosa PA103 T3SS (ExoU secretion); assay type: cell-based, Pseudomonas aeruginosa
[2] = tested on: Y. pseudotuberculosis Ysc T3SS (YopE secretion); assay type: cell-based, Yersinia pseudotuberculosis
[3] = tested on: Y. enterocolitica Ysa T3SS (YspF secretion); assay type: cell-based, Yersinia enterocolitica
[4] = tested on: Salmonella enterica Typhimurium SPI-1 T3SS (SipA, SipC secretion); assay type: cell-based
[5] = tested on: Salmonella flagellar T3SS (FliC, FliD secretion); assay type: cell-based, Salmonella enterica Typhimurium; design: key to Fla fliC (Table 2): NE: No effect observed
[6] = tested on: C. trachomatis serovar L2 in HeLa cells; assay: Chlamydia infection of HeLa cells (primary and secondary infection); assay type: cell-based, Chlamydia trachomatis
Description: Primary infections. HeLa cell monolayers were infected with C. trachomatis serovar L2 at a multiplicity of infection (MOI) of 1.0 in the presence of one of the following compounds at 9 μM: DMSO, 4EpDN, or 4EpDN 2Sar. Cells were incubated for 24 h in the presence of the above-listed compounds at 37°C and then fixed with 4% paraformaldehyde (PFA). Cells were stained for IncA (Chlamydia inclusion membrane marker), DNA (with DAPI), and MOMP (Chlamydia major outer membrane protein) simultaneously. This method of staining allows visualization of the inclusion independent of MOMP synthesis or transport. The percentage of cells infected (i.e., stained positively for the listed Chlamydia markers) in the presence of the compounds was quantified using confocal microscopy. Quantifications of inclusion take into account both DAPI staining and indirect immunofluoresence with an antibody to MOMP. Ten randomly selected fields of view were measured per experiment. The data represent three biological replicates.
Secondary infections. HeLa cell monolayers were infected with C. trachomatis serovar L2 at an MOI of 1.0 in the presence of one of the following compounds at 9 μM: DMSO, 4EpDN, or 4EpDN 2Sar. Cells were incubated for 48 h in the presence of the above-listed compounds at 37°C. Infected cells were then lysed, and the lysate was applied to fresh HeLa monolayers to enumerate infectious particles. These secondary infections were fixed in 4% PFA at 24 hpi and were stained against MOMP and DNA. The infectious units per ml (IFU/ml) were calculated by averaging the number of infected cells in each of 10 randomly selected fields of view at ×40 magnification on a confocal microscope and multiplying this by the appropriate dilution and area factors. The data represent four biological replicates.

[7] = tested on: Y. pseudotuberculosis twin arginine translocation (Tat) system; assay type: cell-based, Yersinia pseudotuberculosis; settings: culture optical density, 4 and 6 h
[8] = tested on: P. aeruginosa PA103 T3SS (ExsE secretion); assay type: cell-based, Pseudomonas aeruginosa
P. aeruginosa (PAO1) = assay type: cell-based, Pseudomonas aeruginosa
Y. pseudotuberculosis = assay type: cell-based, Yersinia pseudotuberculosis; settings: 2xYT, 9-120 µM, 12 h
Kinetic solubility = assay type: physicochemical
Description: […] Then, […] of 15 mM stock compound was added to make a solution of 120 μM final concentration with 0.8% DMSO. The solution was shaken at 37°C for ∼2 h. The solution was passed over a 0.7- μM glass fiber filter. Then, the solution was diluted 1:4 in acetonitrile to crash out any proteins. The solution was centrifuged at 500 × g for 10 min. Avoiding the pellet, 10 μl of supernatant was added to a fresh plate with 90 μl of acetonitrile. The final dilution is 40 times lower. Next, 10 μl of 40× dilution of solution was injected on the Orbi-trap. A 1 μM standard was used for the ratiometric comparison, and the assay was done in triplicate.

[9] = tested on: Salmonella T3SS genes (hilA, hilD, invF, sipC, sipA, fliC); assay: mRNA quantification by qPCR of T3SS genes; assay type: cell-based, Salmonella enterica Typhimurium; settings: 9 µM, 2 h and 4 h
Description: Samples were taken after 3 h of induction. Overnight Salmonella cultures were subcultured into fresh LB with 0.3 M NaCl at 37°C in the presence of 9 μM 4EpDN, 4EpDN 2Sar, or equivalent DMSO. Samples were taken after 2 h and 4 h of induction. Samples were stored in RNAprotect reagent (Qiagen) and processed within a week. Total RNA was isolated using an RNAeasy kit (Qiagen) according to the manufacturer’s instructions, followed by two rounds of Turbo DNase (Thermo Fisher scientific) treatment. A total of 2 μg of RNA was used to make cDNA, and quantitative PCRs (qPCRs) were run with SYBR green PCR master mix (Applied Biosystems). DNA helicase (dnaB) and 16S rRNA genes were used as a reference for P. aeruginosa and Salmonella samples, respectively. Two to three technical replicates were averaged for each sample. Results were analyzed using Bio-Rad CFX software.

HeLa cells = assay: Cytological profiling (CP); assay type: cell-based; settings: concentration used in Chlamydia infection
Description: Briefly, HeLa cells were cultured and seeded into 384-well plates at 2,500 cells/well. After 48 h, compounds were added using a Janus MDT robot (PerkinElmer). Two stain sets were used—stain set 1, Hoechst, EdUrhodamine, anti-phosphohistone H3, and GM130; stain set 2, Hoechst, fluorescein isothiocyanate (FITC)-alpha tubulin, rhodamine-phalloidin, and calnexin. For stain set 1, cells were incubated with 20 μM EdUrhodamine for 1 h prior to fixing in 4% formaldehyde solution in PBS for 20 min. Cells were then washed with PBS and permeabilized with 0.5% Triton X-100 in PBS for 10 min before blocking with 2% BSA in PBS solution for at least 1 h. Following this, cells were incubated with primary antibodies overnight at 4°C. The following day, excess primary antibody was washed off with PBS and Alexa-488, and Alexa-647 secondary antibodies and Hoechst solution were incubated for 1 h. Plates were washed with PBS and preserved with 0.1% sodium azide in PBS solution prior to imaging. For stain set 2, cells were fixed with a 4% formaldehyde solution in PBS for 20 min. Cells were then washed with PBS and permeabilized with 0.5% Triton X-100 in PBS for 10 min before blocking with 2% BSA in PBS solution for at least 1 h. Following this, cells were incubated with primary antibodies overnight at 4°C. […]

[10] = tested on: Salmonella enterica Typhimurium SPI-1 T3SS; settings: culture-based secretion assay; ref [102]; read-out: IC50, SipC secretion; cited from earlier work
flagella (Fla), fliC = tested on: flagella (Fla), fliC; design: key: NE: No effect observed; settings: ref [102]; cited from earlier work

With `CCCN1CC(=O)N(Cc2ccccc2)CC(=O)N[C@@H](CC(C)C)C(=O)N[C@@H]([C@@H](C)CC)C(=O)N[C@H](CC(C)C)C(=O)N[C@H](Cc2ccccc2)C1=O` [4EpDN, 4-EpD1,2N] (cyclo(I[dL][dF][NPrGly][Nphe]L)) the “fold more potent than its parental compound” value [1] was 2 fold, the “inhibition of ExoU secretion” value ([1]; 9 µM) was about 75% and the “inhibition of ExoU secretion” value ([1]; 60 µM) was about 75%. The IC50 ([1]; read-out: IC50, inhibition of secretion of T3SS effector ExoU) was 3900 nM, the “lowest known inhibitory concentration (∼), YopE secretion” value ([2]; Table 2, Ysc, culture-based secretion assay) was “∼7.5 YopE^b μM” and the “T3SS effector secretion inhibited, fold” value ([2]; same concentration as YscF staining (60 μM)) was 4 fold. The IC50 [3] was 16100 nM, the “secretion of YspF, in words” value [3] was “inhibited secretion of YspF in a dose-dependent manner” and the IC50 ([4]; read-out: IC50, SipAC secretion (SPI-1 T3SS)) was 1000 nM. The IC50 ([4]; read-out: IC50, SipC secretion) was ~1000 nM and ~800 nM, the “Fla fliC (Table 2)” value [5] was “NE^d” and the “concentration inhibiting FliC secretion” value [5] was at least 60 µM. The “inhibition of formation of infectious progeny” value ([6]; 9 μM, EBs collected at 48 hpi, fresh monolayers 24 h) was about 98%, the “decrease of primary inclusion formation” value ([6]; 9 μM, HeLa cells, 24 hpi) was about 50% and the “lowest known inhibitory concentration (∼), cell-based infection assay, Chlamydia” value ([6]; Table 2, Chlamydiales) was “∼9^c μM”. For the same compound, the “growth of SufI-β-lactamase Tat reporter bacteria in penicillin G / Tat inhibition, in words” value [7] was “does not inhibit the Tat secretion system”, the “inhibition of ExsE secretion” value ([8]; 9 µM) was “did not significantly inhibit” and the “inhibition of ExsE secretion” value ([8]; 60 µM) was about 40%. For the same compound, the “bacterial viability in broth culture” value (P. aeruginosa (PAO1)) was “did not affect bacterial viability”, the “bacterial viability in broth culture” value (Y. pseudotuberculosis) was “did not affect bacterial viability” and the solubility kinetic (Kinetic solubility) was 13 µM (≈ 9.53 µg/mL). For the same compound, the solubility (Kinetic solubility; DMEM (no antibiotics)) was 12 µM (≈ 8.8 µg/mL), the solubility (Kinetic solubility; M9) was 10 µM (≈ 7.33 µg/mL) and the “expression of T3SS genes (qPCR), in words” value [9] was “nor did it impact T3SS gene transcription”. The “changes to actin cytoskeleton, Golgi network, endoplasmic reticulum, microtubule network” value (HeLa cells) was “did not show any gross changes”.

For `CCCCCCCC(=O)c1c(O)cc(O)cc1CC(=O)OCC` [Cytosporone B], the IC50 [10] is listed as 6250 nM and the “Fla fliC” value (flagella (Fla), fliC) is listed as “NE^d”.
